In the CheMixHub viscosity set:

Test: xn = mol fraction of the nth substance listed

CC(=O)OCCC(C)C + Brc1ccccc1
viscosity [mPa·s], 101 kPa
Settings	298.15 K	303.15 K	308.15 K	313.15 K
x1 = 0.0443	1.026	–	0.952	–
x1 = 0.0719	–	1.003	–	0.883
x1 = 0.1494	0.992	–	0.925	–
x1 = 0.1499	–	0.991	–	0.869
x1 = 0.2334	–	0.974	–	0.852
x1 = 0.2513	0.962	–	0.898	–
x1 = 0.3222	–	0.949	–	0.828
x1 = 0.3494	0.933	–	0.875	–
x1 = 0.4137	–	0.921	–	0.801
x1 = 0.4478	0.908	–	0.853	–
x1 = 0.4962	0.895	–	0.842	–
x1 = 0.509	–	0.893	–	0.774
x1 = 0.5517	0.881	–	0.83	–
x1 = 0.6182	–	0.859	–	0.743
x1 = 0.6512	0.857	–	0.811	–
x1 = 0.7358	–	0.823	–	0.711
x1 = 0.7497	0.834	–	0.792	–
x1 = 0.8504	0.812	–	0.773	–
x1 = 0.8603	–	0.787	–	0.677
x1 = 0.9487	0.791	–	0.756	–

CC(=O)OCCC(C)C + C1CCCCC1
viscosity [mPa·s], 101 kPa
Settings	298.15 K	308.15 K
x1 = 0.0292	0.862	0.73
x1 = 0.0895	0.813	0.686
x1 = 0.1448	0.776	0.653
x1 = 0.2104	0.74	0.621
x1 = 0.3069	0.7	0.587
x1 = 0.3512	0.687	0.577
x1 = 0.3964	0.676	0.569
x1 = 0.4958	0.661	0.561
x1 = 0.6222	0.661	0.57
x1 = 0.753	0.682	0.603
x1 = 0.9257	0.747	0.69

CCOP(OCC)OCC + CC#N
298.15 K, 101 kPa
Settings	viscosity [mPa·s]
x1 = 0.2	0.452
x1 = 0.4	0.512
x1 = 0.6	0.573
x1 = 0.8	0.642

C[NH+](C)C.[Cl-] + CC(=O)CCC(=O)O
101 kPa, x2 = 0.75
Settings	viscosity [mPa·s]
293.15 K	74.02
303.15 K	42.25
313.15 K	25.57
323.15 K	17.71

CC(=O)Nc1ccccc1 + CC(=O)O
viscosity [mPa·s], 101.3 kPa
Settings	x1 = 0.1	x1 = 0.204	x1 = 0.288
298.15 K	19	30.2	43.6
323.15 K	11.8	18.2	27.7

CC(=O)O.OCCNCCO + CC(=O)O.NCCO
viscosity [mPa·s], 101.3 kPa
Settings	x2 = 0.132	x2 = 0.2549	x2 = 0.3688	x2 = 0.4761	x2 = 0.5761	x2 = 0.671	x2 = 0.7597	x2 = 0.8444	x2 = 0.9235
293.15 K	2246	2377	2507	2638	2769	2900	3031	3161	3292
298.15 K	1454	1544	1635	1725	1815	1906	1996	2086	2177
303.15 K	965.1	1025	1084	1144	1204	1263	1323	1383	1442
308.15 K	657.7	698.1	738.5	778.9	819.3	859.7	900	940.4	980.8
313.15 K	459.4	487.4	515.3	543.3	571.3	599.2	627.2	655.1	683.1
318.15 K	328.1	348	367.8	387.6	407.4	427.3	447.1	466.9	486.7
323.15 K	239.3	253.7	268	282.3	296.7	311	325.3	339.7	354
